US6479233B1, “Electrogenerated chemiluminescence labels for analysis and/or referencing” (IGEN International, Inc., priority 1994, dated 2002)
Like-named read-outs stand apart in the source and are kept apart here. Blank lines part the entries; values can stand above or below the compound they belong to.

Legend:
[1] = ECL spectra (CCD camera and spectrometer); type: physicochemical; parameters: wavelength centered emission: unit not given here; conditions: for ECL maximum: pH 8.5 sodium phosphate buffer
Method: (§1) Fluorescence and ECL spectra were recorded using a charge-coupled device (CCD) camera and spectrometer (1 mm entrance slit) interfaced to a Dell System 200 personal computer (Austin, Tex.) as previously described. The same procedures (spectral calibration etc.) were followed except that different pulse sequences were used and the CCD detector was maintained at −110° C. for the TPrA/THCOOH and TPrA/DPAS experiments and −100° C. for the S2O8^2−/DPAS experiments. Excitation for the fluorescence spectra was achieved by holding a longwave (366 nm) UV lamp (UVP, Inc., San Gabriel, Calif.; model UVGL-25; sold by Fisher Scientific, Pittsburgh, Pa.) next to the cell and at right angles to the entrance slit of the spectrometer.
The DPAS/TPrA ECL spectrum and emission vs. potential scans utilized a 6×9 mm Pt gauze flag (52 mesh gauze; Aldrich) working electrode, an AgQRE and a round (9 mm diameter, 0.5 mm thick) Au foil counter electrode. The 2-THCOOH ECL spectrum also utilized this arrangement. The gauze working electrode was cleaned prior to each experiment by immersion in concentrated nitric acid followed by rinsing in distilled water and heating in a bunsen burner flame.
The DPAS/S2O8^2− ECL spectrum and emission vs. potential scan utilized a 2.0 mm diameter Pt disk working electrode sealed in glass in combination with a Pt wire counter electrode and AgQRE.

[2] = Fluorescence spectra (CCD camera, 366 nm UV excitation); type: physicochemical; conditions: for fluorescence maximum: pH 8.5 sodium phosphate buffer
Method: as §1

[3] = Cyclic voltammetry / standard potentials; type: physicochemical
Method: Cyclic voltammetry without photon detection was obtained by using either a BAS 100A Electrochemical Analyzer (Bioanalytical Systems, West Lafayette, Ind.) or a Princeton Applied Research (PAR) model 173/175 potentiostat/universal programmer (Princeton, N.J.) and Omnigraphic 20000 X-Y recorder (Bausch and Lomb-Houston Instrument Division, Austin, Tex.). Cyclic voltammograms with simultaneous photon detection were recorded using the PAR 173/175 in conjunction with a Hamamatsu C1230 photon counter (Bridgewater, N.J.) equipped with a Hamamatsu R928-P photomultiplier tube. The photomultiplier tube was housed in a water jacketed Products For Research, Inc. model TE308TSRF refrigerated chamber maintained at −10° C. Primary cooling of the water jacket to 10° C. was accomplished using an MGW Lauda model RMS6 refrigeration unit (sold by Brinkmann Instruments Co., Westbury, N.Y.). For plots of ECL intensity vs. potential, the output from the photon counter was fed into the Y-axis of the X-Y recorder during potential scans.
Except where noted, all electrochemical and ECL experiments utilized a conventional 3-electrode cell configuration. Pt disk working electrodes were polished on a felt pad (Buehler, Ltd., Lake Bluff, Ill.) before each experiment run with 0.05 μm alumina (Buehler, Ltd.) suspended in water.
For cyclic voltammetry runs without photon detection, the CPZ embodiment utilized a highly-oriented pyrolytic graphite (HOPG; Union Carbide, Cleveland, Ohio) working electrode (6 mm dia. disk with freshly exposed material for each experiment), Pt wire counter electrode and Ag quasi-reference electrode (AgQRE) in a recently describe configuration. See Xu, X.; Bard, A. J. Langmuir, 1994, 10, 2409. Similar runs for all other compounds utilized a 1.5 mm diameter Pt disk working electrode sealed in glass in combination with a Pt wire counter electrode and AgQRE.
Nonaqueous potential referencing to ferrocene was accomplished by adding the standard directly to the solutions. […]

[4] = parameters: peak emission: unit not given here; conditions: cited from earlier work; for fluorescence efficiency φF: aqueous media
[5] = Maximum solubility of aqueous DPAS in sodium phosphate buffer; type: physicochemical; conditions: 0.15 M sodium phosphate buffer (pH 7.5)
From the text: The maximum solubility of aqueous DPAS in 0.15 M sodium phosphate buffer (pH 7.5) is approximately 1×10^−5 M. At this low concentration, no anodic current can be observed for DPAS above the background oxidation of water as shown in FIG. 1. However, if 1×10^−5 M DPAS is oxidized in the presence of 0.15 M TPrA, an emission that coincides with an oxidation wave occurs that is superimposed on the TPrA oxidation and background oxidation of water as shown in FIGS. 2a-2b. The fact that an oxidation current is observed for 1×10^−5 M DPAS only in the presence of TPrA implicates a catalytic current enhancement due to the regeneration of DPAS via reduction of DPAS^+ by TPrA or an intermediate. For this catalysis, the cyclic sequence of reactions is analogous to equation schemes (5), (6a), (7), (8) or (10) and (11), and (9) above where Ru(bpy)3^3+/2+/+ is replaced by DPAS^+/0/− respectively, XY^z is TPrA, X^x is Pr2NCH.Et and Y^y is H^+. Despite the low DPAS concentration, 1×10^−5 M, this emission is visibly blue when viewed in a dark room and no emission is observed in the absence of either TPrA or DPAS.

[6] = non-aqueous ion annihilation scheme; cited from earlier work

- ECL maximum ([1]; 0.15 M TPrA): 570 nm
- fluorescence maximum ([2]; 0.15 M TPrA): 505 nm
Structure (SMILES): O=C(O)c1cccc2c1Sc1ccccc1S2 [1-THCOOH, 1-thianthrenecarboxylic acid]

- oxidation potential ([3]; aqueous solution, pH 8.5 sodium phosphate buffer, Pt electrode, vs SCE): ~+1.0 V
- ECL maximum ([1]; 0.15 M TPrA): 570 nm
- fluorescence maximum ([2]; 0.15 M TPrA): 480 nm
Structure (SMILES): O=C(O)c1ccc2c(c1)Sc1ccccc1S2 [2-THCOOH, 2-thianthrenecarboxylic acid]

- E° of DPAS+/DPAS ([3]; oxidation): ≈ +1.3 V vs SCE
- E° of DPAS/DPAS− ([3]; reduction): ≈ −1.9 V vs SCE
- ECL peak intensity wavelength ([1]; 1.1 mM DPAS, 25 mM (NH4)2S2O8, MeCN-water 1:1, reduction at −2.2 V vs SCE): 430 nm
- ECL peak intensity wavelength ([1]; 1×10^−5 M DPAS, 0.15 M TPrA, pH 7.5 sodium phosphate buffer, oxidation): 430 nm
- wavelength centered emission ([1]; emission spectra of FIG. 19): 430
- solubility [5]: ~10 µM
- singlet excited state energy Es [2]: 2.9 eV
- fluorescence peak intensity wavelength ([2]; 1.1 mM DPAS, 25 mM (NH4)2S2O8, MeCN-water 1:1): 430 nm
- fluorescence peak intensity wavelength ([2]; 1×10^−5 M DPAS, 0.15 M TPrA, pH 7.5 sodium phosphate buffer): 430 nm
Structure (SMILES): O=S(=O)([O-])c1ccc2c(-c3ccccc3)c3ccccc3c(-c3ccccc3)c2c1.[Na+] [DPAS, sodium 9,10-diphenylanthracene-2-sulfonate]
- fluorescence efficiency φF [4]: 0.87
- peak emission ([4]; fluorescence): 428

Structure (SMILES): [Ru+2].c1ccc(-c2ccccn2)nc1.c1ccc(-c2ccccn2)nc1.c1ccc(-c2ccccn2)nc1 [Ru(bpy)3^2+, tris (2,2-bipyridine)ruthenium(II), reference compound]
- fluorescence efficiency φF [4]: about 0.05

Structure (SMILES): c1ccc2c(c1)Sc1ccccc1S2 [thianthrene, reference compound]
- ECL peak intensity wavelength [6]: 434 nm
- emission maximum of fluorescence ([4]; in MeCN): 434 nm
